According to ChEMBL document CHEMBL1201862, “PubChem BioAssay data set” (2004):
The source made the active and inactive calls.

Key:
[1] = (§1) Counterscreen for antagonists of the orexin 1 receptor (OX1R; HCRTR1): Fluorescence-based cell-based high throughput dose response assay to identify antagonists of the parental CHO cell line. [Related pubchem assays (depositor defined):AID434989, AID435008, AID463079, AID485270, AID492963, AID492964, AID492965, AID493232, AID504699, AID504701]; format: functional
CHO-K1 = assay: as §1, with “Homogeneous time resolved fluorescence (HTRF)-based” for “Fluorescence-based”, “cell-based” for “cell-based high throughput”, “CHO-K1” for “CHO”; format: functional; details: Cricetulus griseus
[2] = molecular target: T1, Replicative DNA helicase DnaB (Mycobacterium tuberculosis, UniProt P9WMR3); assay: DnaB intein splicing inhibitors, dose response, biochemical, cell-free fluorescence (AID 449749); format: functional
T1 sequence (P9WMR3 whole entry): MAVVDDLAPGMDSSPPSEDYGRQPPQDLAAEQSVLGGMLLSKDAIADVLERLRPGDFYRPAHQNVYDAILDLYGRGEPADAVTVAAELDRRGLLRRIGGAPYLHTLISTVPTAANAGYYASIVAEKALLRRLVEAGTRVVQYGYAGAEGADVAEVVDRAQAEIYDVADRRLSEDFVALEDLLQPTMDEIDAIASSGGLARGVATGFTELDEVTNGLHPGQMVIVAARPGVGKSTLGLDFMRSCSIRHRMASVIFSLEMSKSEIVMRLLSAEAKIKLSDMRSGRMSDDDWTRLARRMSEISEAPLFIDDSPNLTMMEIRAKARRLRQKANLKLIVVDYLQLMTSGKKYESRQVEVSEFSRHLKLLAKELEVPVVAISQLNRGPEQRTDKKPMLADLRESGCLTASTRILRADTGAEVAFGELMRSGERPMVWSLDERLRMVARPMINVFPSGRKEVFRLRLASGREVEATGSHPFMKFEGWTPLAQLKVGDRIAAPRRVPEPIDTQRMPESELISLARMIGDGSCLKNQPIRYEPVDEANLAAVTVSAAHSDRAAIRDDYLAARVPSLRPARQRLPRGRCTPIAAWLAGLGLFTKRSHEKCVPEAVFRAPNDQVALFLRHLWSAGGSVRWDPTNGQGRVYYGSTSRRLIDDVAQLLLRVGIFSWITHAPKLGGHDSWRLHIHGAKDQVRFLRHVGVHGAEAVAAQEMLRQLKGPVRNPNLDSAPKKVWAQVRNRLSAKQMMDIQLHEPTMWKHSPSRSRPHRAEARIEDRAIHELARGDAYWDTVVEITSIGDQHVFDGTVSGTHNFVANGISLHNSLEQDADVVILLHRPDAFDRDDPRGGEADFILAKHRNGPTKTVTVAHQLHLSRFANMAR

[3] = molecular target: T2, Orexin/Hypocretin receptor type 1 (Homo sapiens, UniProt O43613); assay: (§2) Fluorescence-based cell-based high throughput dose response assay for antagonists of the orexin 1 receptor (OX1R; HCRTR1). [Related pubchem assays (depositor defined):AID434989, AID435008, AID463079, AID485270, AID492963, AID492964, AID492965, AID493232, AID504717, AID504718]; format: functional
T2 sequence (O43613 whole entry): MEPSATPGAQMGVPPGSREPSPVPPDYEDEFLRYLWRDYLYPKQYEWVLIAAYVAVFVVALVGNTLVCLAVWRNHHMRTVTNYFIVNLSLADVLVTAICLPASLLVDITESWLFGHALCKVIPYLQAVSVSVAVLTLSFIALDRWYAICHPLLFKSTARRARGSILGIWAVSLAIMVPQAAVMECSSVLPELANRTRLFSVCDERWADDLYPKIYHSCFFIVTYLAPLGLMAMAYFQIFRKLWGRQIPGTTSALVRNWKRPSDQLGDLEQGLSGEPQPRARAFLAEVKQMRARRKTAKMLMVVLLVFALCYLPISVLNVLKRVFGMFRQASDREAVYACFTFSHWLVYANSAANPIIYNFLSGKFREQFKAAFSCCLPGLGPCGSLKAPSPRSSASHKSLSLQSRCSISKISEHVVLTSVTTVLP

Protein RecA = molecular target: T3, Protein RecA (Mycobacterium tuberculosis, UniProt P9WHJ3); assay: Fluorescence Cell-Free Homogeneous Dose Retest to Identify Inhibitors of RecA-Intein Splicing Activity. [Related pubchem assays (depositor defined):AID2097, AID2223, AID489010, AID492950]; format: functional
T3 sequence (P9WHJ3 whole entry): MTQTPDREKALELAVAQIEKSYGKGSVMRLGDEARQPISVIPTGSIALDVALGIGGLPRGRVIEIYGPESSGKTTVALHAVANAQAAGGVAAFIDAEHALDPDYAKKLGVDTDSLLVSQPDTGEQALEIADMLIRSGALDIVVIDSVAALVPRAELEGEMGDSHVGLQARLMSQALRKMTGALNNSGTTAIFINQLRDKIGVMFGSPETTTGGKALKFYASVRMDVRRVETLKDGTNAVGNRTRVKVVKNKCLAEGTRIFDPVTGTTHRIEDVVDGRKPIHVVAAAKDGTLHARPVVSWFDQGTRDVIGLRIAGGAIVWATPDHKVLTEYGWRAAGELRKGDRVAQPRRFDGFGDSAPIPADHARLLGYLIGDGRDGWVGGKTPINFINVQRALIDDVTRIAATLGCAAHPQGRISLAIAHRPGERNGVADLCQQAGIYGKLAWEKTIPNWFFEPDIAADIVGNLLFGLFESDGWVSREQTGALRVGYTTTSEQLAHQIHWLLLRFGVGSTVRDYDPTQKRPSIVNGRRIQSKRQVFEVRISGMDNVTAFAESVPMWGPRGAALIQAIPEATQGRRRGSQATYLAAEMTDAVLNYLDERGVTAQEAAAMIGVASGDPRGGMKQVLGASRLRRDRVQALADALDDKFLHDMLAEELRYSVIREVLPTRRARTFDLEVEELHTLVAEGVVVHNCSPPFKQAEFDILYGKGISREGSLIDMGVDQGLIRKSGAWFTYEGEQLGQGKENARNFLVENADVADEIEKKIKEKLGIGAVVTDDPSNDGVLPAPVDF

[4] = molecular target: T2, Orexin/Hypocretin receptor type 1; assay: as §2, with “Homogeneous Time Resolved Fluorescence (HTRF)-based” for “Fluorescence-based”; format: functional
[5] = molecular target: T4, Peroxisome proliferator-activated receptor gamma (Homo sapiens, UniProt P37231); assay: PPARg transcriptional activation, reporter cells – cell-based, luminescence, assay provider, dose response (AID 504447); format: functional
T4 sequence (P37231 whole entry): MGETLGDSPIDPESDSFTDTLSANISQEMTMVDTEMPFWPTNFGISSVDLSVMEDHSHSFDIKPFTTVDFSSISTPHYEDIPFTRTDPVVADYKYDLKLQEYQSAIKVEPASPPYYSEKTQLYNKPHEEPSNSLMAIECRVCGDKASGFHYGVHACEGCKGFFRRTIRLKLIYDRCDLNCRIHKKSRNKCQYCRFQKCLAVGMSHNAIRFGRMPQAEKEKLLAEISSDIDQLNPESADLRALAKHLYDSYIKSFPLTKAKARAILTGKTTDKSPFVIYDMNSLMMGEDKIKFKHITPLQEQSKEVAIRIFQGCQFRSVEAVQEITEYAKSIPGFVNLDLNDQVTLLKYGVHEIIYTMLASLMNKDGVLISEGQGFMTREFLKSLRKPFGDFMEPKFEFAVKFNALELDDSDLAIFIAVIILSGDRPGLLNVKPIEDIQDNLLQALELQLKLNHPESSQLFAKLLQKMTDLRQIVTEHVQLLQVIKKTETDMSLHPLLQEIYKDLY

[6] = molecular target: T4, Peroxisome proliferator-activated receptor gamma; assay: competitive ligand displacement at PPARg – biochemical, TR-FRET, LanthaScreen, PPARg partial agonist project, dose response (AID 504446)
[7] = molecular target: Peroxisome proliferator-activated receptor alpha (Homo sapiens, UniProt Q07869); assay: Late stage assay provider counterscreen for partial agonists of the peroxisome proliferator-activated receptor gamma (PPARg): Luminescence-based cell-based dose response assay for partial agonists of the peroxisome proliferator-activated receptor alpha (PPARA). [Related pubchem assays (depositor defined):AID1051, AID1300, AID1319, AID1679, AID1808, AID504446, AID504447, AID504452, AID504453, AID631]; format: functional
Sequence of Peroxisome proliferator-activated receptor alpha (Q07869 whole entry): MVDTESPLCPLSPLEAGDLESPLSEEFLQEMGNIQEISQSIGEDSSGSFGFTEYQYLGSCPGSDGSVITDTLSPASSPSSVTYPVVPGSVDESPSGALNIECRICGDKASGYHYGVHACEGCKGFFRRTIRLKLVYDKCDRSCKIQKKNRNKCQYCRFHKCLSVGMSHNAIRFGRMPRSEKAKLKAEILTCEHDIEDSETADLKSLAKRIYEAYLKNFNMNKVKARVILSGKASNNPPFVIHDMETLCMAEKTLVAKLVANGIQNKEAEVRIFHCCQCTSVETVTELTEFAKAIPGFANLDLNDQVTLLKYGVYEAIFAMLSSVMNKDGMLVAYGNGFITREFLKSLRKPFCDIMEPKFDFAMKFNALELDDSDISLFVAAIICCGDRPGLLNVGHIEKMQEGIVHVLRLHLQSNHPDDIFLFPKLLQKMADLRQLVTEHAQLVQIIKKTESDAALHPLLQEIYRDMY

[8] = molecular target: Signal transducer and activator of transcription 3 (Homo sapiens, UniProt P40763); assay: STAT3 blockade with qPCR and toxicity readouts – cell-based, STAT1 panel, cytotoxicity, late-stage follow-up, panel member STAT3 Inhibition (AID 2078)
Sequence of Signal transducer and activator of transcription 3 (P40763 whole entry): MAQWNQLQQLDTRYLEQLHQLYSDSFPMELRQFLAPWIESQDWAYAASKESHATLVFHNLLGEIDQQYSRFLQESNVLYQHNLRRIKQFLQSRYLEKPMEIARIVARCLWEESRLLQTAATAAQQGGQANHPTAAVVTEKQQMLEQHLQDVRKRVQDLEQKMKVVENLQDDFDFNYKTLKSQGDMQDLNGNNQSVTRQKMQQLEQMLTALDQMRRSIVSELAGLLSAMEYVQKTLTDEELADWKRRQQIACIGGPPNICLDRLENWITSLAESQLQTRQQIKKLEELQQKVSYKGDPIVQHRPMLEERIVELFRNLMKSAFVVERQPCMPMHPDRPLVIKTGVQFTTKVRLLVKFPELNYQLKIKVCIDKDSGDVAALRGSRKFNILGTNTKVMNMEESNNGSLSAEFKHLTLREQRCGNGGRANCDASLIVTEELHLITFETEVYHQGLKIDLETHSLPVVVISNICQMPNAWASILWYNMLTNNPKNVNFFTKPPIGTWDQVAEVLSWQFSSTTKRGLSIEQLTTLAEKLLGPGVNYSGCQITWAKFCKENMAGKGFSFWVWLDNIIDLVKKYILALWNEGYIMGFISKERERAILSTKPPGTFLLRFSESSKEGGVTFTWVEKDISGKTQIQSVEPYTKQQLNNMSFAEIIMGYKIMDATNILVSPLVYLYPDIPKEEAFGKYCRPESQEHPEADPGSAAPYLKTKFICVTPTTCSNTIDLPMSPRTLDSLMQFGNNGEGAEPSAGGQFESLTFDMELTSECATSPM

[9] = molecular target: Signal transducer and activator of transcription 1-alpha/beta (Homo sapiens, UniProt P42224); assay: STAT3 blockade with qPCR and toxicity readouts – cell-based, STAT1 panel, cytotoxicity, late-stage follow-up, panel member STAT1 Inhibition (AID 2078)
Sequence of Signal transducer and activator of transcription 1-alpha/beta (P42224 whole entry): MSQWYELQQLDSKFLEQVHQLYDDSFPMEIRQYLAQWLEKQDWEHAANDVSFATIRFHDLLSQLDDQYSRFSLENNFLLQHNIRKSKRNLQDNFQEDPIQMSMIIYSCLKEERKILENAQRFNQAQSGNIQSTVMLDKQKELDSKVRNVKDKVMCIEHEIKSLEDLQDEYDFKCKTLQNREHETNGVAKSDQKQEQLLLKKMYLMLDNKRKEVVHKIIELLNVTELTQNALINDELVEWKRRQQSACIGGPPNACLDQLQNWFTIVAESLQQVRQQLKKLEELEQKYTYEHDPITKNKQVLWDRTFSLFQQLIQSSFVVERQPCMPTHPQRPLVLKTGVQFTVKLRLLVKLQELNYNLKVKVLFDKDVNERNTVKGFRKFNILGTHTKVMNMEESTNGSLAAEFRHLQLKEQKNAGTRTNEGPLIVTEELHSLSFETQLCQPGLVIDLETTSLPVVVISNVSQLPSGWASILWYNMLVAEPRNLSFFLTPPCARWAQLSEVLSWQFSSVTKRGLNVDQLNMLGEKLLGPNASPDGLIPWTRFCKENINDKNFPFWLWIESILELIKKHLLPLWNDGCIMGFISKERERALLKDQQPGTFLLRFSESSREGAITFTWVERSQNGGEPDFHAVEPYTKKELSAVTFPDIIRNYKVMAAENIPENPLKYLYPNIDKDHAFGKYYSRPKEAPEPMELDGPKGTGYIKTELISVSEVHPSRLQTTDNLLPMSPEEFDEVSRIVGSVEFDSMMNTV

## COc1ccc(S(=O)(=O)Nc2c(O)ccc3ccccc23)cc1OC
[1]
  IC50: > 49.8 µM (inactive)
CHO-K1
  IC50: 27 µM (inactive)
[2]
  AC50: 5.46 µM (active)
[3]
  IC50: > 16.6 µM (inactive)
Protein RecA
  EC50: 2.85 µM (active)
[4]
  IC50: 3.15 µM (active)

## CCCCOC(=O)CCN1C(=O)/C(=C/c2ccccc2)SC1=S
[5]
  EC50: 3.2 µM (active)
[6]
  IC50: 3.2 µM (active)
[7]
  EC50: 0.12 µM (active)

## O=C(c1ccc(F)cc1)C1CCN(c2ncnc3sccc23)CC1
[8]
  IC50: 1.68 µM (active)
[9]
  IC50: > 55.7 µM (inactive)
